Source: patent publication US9334238B2, “N-substituted pyridinylidenes for combating animal pests” (BASF SE, priority 2012, dated 2016)

Key:
Assay type in all cases: in vivo
[1] = tested on: Rice Green Leafhopper (Nephotettix virescens); test: Rice green leafhopper test, sprayed rice seedlings; conditions: 500 ppm spray on rice seedlings, adults, after 72 hours, read-out: mortality in comparison with untreated controls
Experimental: B.5 Rice Green Leafhopper (Nephotettix virescens)
(§1) Rice seedlings were cleaned and washed 24 hours before spraying. The active compounds were formulated in 50:50 acetone:water (vol:vol), and 0.1% vol/vol surfactant (EL 620) wss added. Potted rice seedlings were sprayed with 5 ml test solution, air dried, placed in cages and inoculated with 10 adults. Treated rice plants were kept at about 28-29° C. and relative humidity of about 50-60%. Percent mortality was recorded after 72 hours.

[2] = tested on: Cowpea Aphid (Aphis craccivora); test: Cowpea aphid test, sprayed potted cowpea plants; conditions: 500 ppm spray on infested cowpea plants, after 72 hours, read-out: mortality in comparison with untreated controls
Experimental: B.2 Cowpea Aphid (Aphis craccivora)
The active compound was dissolved at the desired concentration in a mixture of 1:1 (vol:vol) distilled water: acetone. Surfactant (Alkamuls® EL 620) was added at a rate of 0.1% (vol/vol). The test solution was prepared at the day of use.
Potted cowpea plants were colonized with approximately 50-100 aphids of various stages by manually transferring a leaf tissue cut from infested plant 24 hours before application. Plants were sprayed after the pest population has been recorded. Treated plants were maintained on light carts at about 28° C. Percent mortality was assessed after 72 hours.

[3] = tested on: Mediterranean fruitfly (Ceratitis capitata); test: Mediterranean fruitfly test, insect diet with eggs in microtiter plates; conditions: 120 h, 2500 ppm sprayed onto insect diet, egg and larval mortality, 5 days, read-out: mortality in comparison with untreated controls
Experimental: B.7 Mediterranean Fruitfly (Ceratitis capitata)
For evaluating control of Mediterranean fruitfly (Ceratitis capitata) the test unit consists of microtiter plates containing an insect diet and 50-80 C. capitata eggs.
The compounds were formulated using a solution containing 75% v/v water and 25% v/v DMSO. Different concentrations of formulated compounds were sprayed onto the insect diet at 5 μl, using a custom built micro atomizer, at two replications.
After application, microtiter plates were incubated at about 28±1° C. and about 80±5% relative humidity for 5 days. Egg and larval mortality was then visually assessed.

[4] = tested on: vetch aphid (Megoura viciae); test: Vetch aphid contact/systemic test, broad bean leaf disks; conditions: foliar, 120 h, 2500 ppm sprayed onto leaf disks, adult aphids, 5 days, read-out: mortality in comparison with untreated controls
Experimental: B.3 Vetch Aphid (Megoura viciae)
For evaluating control of vetch aphid (Megoura viciae) through contact or systemic means the test unit consisted of 24-well-microtiter plates containing broad bean leaf disks.
The compounds were formulated using a solution containing 75% v/v water and 25% v/v DMSO. Different concentrations of formulated compounds were sprayed onto the leaf disks at 2.5 μl, using a custom built micro atomizer, at two replications.
After application, the leaf disks were air-dried and 5-8 adult aphids placed on the leaf disks inside the microtiter plate wells. The aphids were then allowed to suck on the treated leaf disks and incubated at about 23±1° C. and about 50±5% relative humidity for 5 days. Aphid mortality and fecundity was then visually assessed.

[5] = tested on: Orchid thrips (dichromothrips corbetti); test: Orchid thrips floral-immersion test; conditions: orchid flowers dipped, adult thrips, 72 hours after treatment, read-out: mortality in comparison with untreated controls
Experimental: B.4 Orchid thrips (dichromothrips corbetti)
Dichromothrips corbetti adults used for bioassay were obtained from a colony maintained continuously under laboratory conditions. For testing purposes, the test compound was diluted in a 1:1 mixture of acetone:water (vol:vol), plus 0.01% vol/vol Alkamuls® EL 620 surfactant.
Thrips potency of each compound was evaluated by using a floral-immersion technique. Plastic petri dishes were used as test arenas. All petals of individual, intact orchid flowers were dipped into treatment solution and allowed to dry. Treated flowers were placed into individual petri dishes along with about 20 adult thrips. The petri dishes were then covered with lids. All test arenas were held under continuous light and a temperature of about 28° C. for duration of the assay. After 3 days, the numbers of live thrips were counted on each flower, and along inner walls of each petri dish. The percent mortality was recorded 72 hours after treatment.

[6] = tested on: green peach aphid (Myzus persicae); test: Green peach aphid systemic test, artificial diet in 96-well microtiter plates; conditions: 72 h, 2500 ppm in aphid diet, adult aphids, 3 days, read-out: mortality in comparison with untreated controls
Excerpt: B.1 Green Peach Aphid (Myzus persicae)
For evaluating control of green peach aphid (Myzus persicae) through systemic means, the test unit consisted of 96-well-microtiter plates containing liquid artificial diet under an artificial membrane.
The compounds were formulated using a solution containing 75% v/v water and 25% v/v DMSO. Different concentrations of formulated compounds were pipetted into the aphid diet, using a custom built pipetter, at two replications.
After application, 5-8 adult aphids were placed on the artificial membrane inside the microtiter plate wells. The aphids were then allowed to suck on the treated aphid diet and incubated at about 23±1° C. and about 50±5% relative humidity for 3 days. Aphid mortality and fecundity was then visually assessed.

[7] = tested on: Rice Brown Plant Hopper (Nilaparvata lugens); test: Rice brown plant hopper test, sprayed rice seedlings; conditions: 500 ppm spray on rice seedlings, adults, after 72 hours, read-out: mortality in comparison with untreated controls
Experimental: B.6 Rice Brown Plant Hopper (Nilaparvata lugens)
as §1, with “compounds was” for “compounds were”, “acetone:water (vol:vol)” for “acetone:water (vol:vol),”, “620) was” for “620) wss”

O=C(/C=C1\C=CC=CN1Cc1ccc(Cl)nc1)C(F)(F)F [E-1, (3E)-3-[1-[(6-chloro-3-pyridyl)methyl]-2-pyridylidene]-1,1,1-trifluoro-propan-2-one]
≥ 75%: mortality at 500 ppm [1] | mortality at 500 ppm [2] | mortality at 2500 ppm [3] | mortality at 2500 ppm [4] | mortality at 500 ppm [5] | mortality at 2500 ppm [6] | mortality at 500 ppm [7]
